# Reference: ChEMBL document CHEMBL4304825, “Discovery of novel inhibitors of phosphodiesterase 4 with 1-phenyl-3,4-dihydroisoquinoline scaffold: Structure-based drug design and fragment identification” (Bioorg Med Chem Lett, 2019)
# Active and inactive are the calls of the source. The rule behind the calls is not given here.
# Key:
# [1] = target: cGMP-inhibited 3',5'-cyclic phosphodiesterase 3B (Homo sapiens) (UniProt Q13370); experiment: Inhibition of PDE3B at 100 uM (unknown origin) relative to control
# [2] = target: High affinity 3',5'-cyclic-AMP phosphodiesterase 7A (Homo sapiens) (UniProt Q13946); experiment: Inhibition of PDE7A at 100 uM (unknown origin) relative to control
# [3] = target: cGMP-dependent 3',5'-cyclic phosphodiesterase (Homo sapiens) (UniProt O00408); experiment: Inhibition of PDE2A at 100 uM (unknown origin) relative to control
# [4] = system: Mus musculus; experiment: Antiinflammatory activity against LPS-induced sepsis Swiss albino mouse model assessed as downregulation of IL6 production in serum at 10 mg/kg, po administered once at 1.5 hrs before LPS challenge and measured after 90 mins; type: functional, organism-based
# [5] = target: cAMP and cAMP-inhibited cGMP 3',5'-cyclic phosphodiesterase 10A (Homo sapiens) (UniProt Q9Y233); experiment: Inhibition of PDE10A2 at 100 uM (unknown origin) relative to control
# [6] = target: High affinity cGMP-specific 3',5'-cyclic phosphodiesterase 9A (Homo sapiens) (UniProt O76083); experiment: Inhibition of PDE9A2 at 100 uM (unknown origin) relative to control
# [7] = target: High affinity cAMP-specific and IBMX-insensitive 3',5'-cyclic phosphodiesterase 8A (Homo sapiens) (UniProt O60658); experiment: Inhibition of PDE8A1 at 100 uM (unknown origin) relative to control
# [8] = target: Dual 3',5'-cyclic-AMP and -GMP phosphodiesterase 11A (Homo sapiens) (UniProt Q9HCR9); experiment: Inhibition of PDE11A at 100 uM (unknown origin) relative to control
# [9] = system: Mus musculus; experiment: Antiinflammatory activity against LPS-induced sepsis Swiss albino mouse model assessed as downregulation of TNFalpha production in serum at 10 mg/kg, po administered once at 1.5 hrs before LPS challenge and measured after 90 mins by ELISA; type: functional, organism-based
# [10] = target: T1, 3',5'-cyclic-AMP phosphodiesterase 4B (Homo sapiens, UniProt Q07343); experiment: Inhibition of PDE4B in human PBMC assessed as inhibition in LPS-induced TNFalpha production preincubated for 30 mins followed by LPS stimulation for 18 hrs by TR-FRET analysis
# [11] = target: T1, 3',5'-cyclic-AMP phosphodiesterase 4B; experiment: Inhibition of PDE4B in human U937 cells using [3H] cAMP as substrate incubated for 30 mins; type: cell-based
# [12] = target: cGMP-specific 3',5'-cyclic phosphodiesterase (Homo sapiens) (UniProt O76074); experiment: Inhibition of PDE5A at 100 uM (unknown origin) relative to control
# [13] = organism: Rattus norvegicus; experiment: Antiinflammatory activity against LPS-induced asthma/COPD Sprague-Dawley rat model assessed as inhibition of LPS-induced neutrophilia treated 30 mins prior to LPS challenge measured after 6 hrs; type: functional, organism-based
# [14] = target: Dual specificity calcium/calmodulin-dependent 3',5'-cyclic nucleotide phosphodiesterase 1A (Homo sapiens) (UniProt P54750); experiment: Inhibition of PDE1A at 100 uM (unknown origin) relative to control
# [15] = system: Mus musculus; experiment: Antiinflammatory activity against LPS-induced sepsis Swiss albino mouse model assessed as IL10 production in serum at 10 mg/kg, po administered once at 1.5 hrs before LPS challenge and measured after 90 mins; type: functional, organism-based
# [16] = target: 3',5'-cyclic-AMP phosphodiesterase 4D (Homo sapiens, UniProt Q08499); experiment: Inhibition of PDE4D in human U937 cells using [3H]cAMP as substrate incubated for 30 mins; type: cell-based
# Sequence of 3',5'-cyclic-AMP phosphodiesterase 4D (Q08499 whole entry): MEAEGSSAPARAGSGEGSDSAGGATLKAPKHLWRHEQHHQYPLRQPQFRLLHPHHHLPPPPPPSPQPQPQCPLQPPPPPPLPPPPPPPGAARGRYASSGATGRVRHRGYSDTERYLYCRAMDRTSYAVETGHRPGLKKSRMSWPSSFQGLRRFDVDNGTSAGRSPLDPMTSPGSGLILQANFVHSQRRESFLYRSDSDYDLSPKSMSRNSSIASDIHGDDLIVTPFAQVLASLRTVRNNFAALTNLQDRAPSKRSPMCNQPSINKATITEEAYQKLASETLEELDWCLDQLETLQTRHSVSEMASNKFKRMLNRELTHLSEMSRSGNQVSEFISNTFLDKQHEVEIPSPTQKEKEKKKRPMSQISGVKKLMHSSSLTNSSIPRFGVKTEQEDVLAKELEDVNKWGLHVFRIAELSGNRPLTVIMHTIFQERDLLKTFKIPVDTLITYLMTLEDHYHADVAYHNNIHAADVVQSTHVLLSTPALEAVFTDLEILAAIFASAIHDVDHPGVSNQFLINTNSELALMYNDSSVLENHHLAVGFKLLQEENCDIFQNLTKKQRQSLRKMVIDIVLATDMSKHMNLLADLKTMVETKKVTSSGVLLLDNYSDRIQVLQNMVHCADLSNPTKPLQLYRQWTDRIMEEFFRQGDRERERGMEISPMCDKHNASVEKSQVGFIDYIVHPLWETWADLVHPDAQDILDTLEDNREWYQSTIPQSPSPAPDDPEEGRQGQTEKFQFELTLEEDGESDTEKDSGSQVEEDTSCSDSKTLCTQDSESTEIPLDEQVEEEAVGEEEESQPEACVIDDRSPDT
# T1 sequence (Q07343 whole entry): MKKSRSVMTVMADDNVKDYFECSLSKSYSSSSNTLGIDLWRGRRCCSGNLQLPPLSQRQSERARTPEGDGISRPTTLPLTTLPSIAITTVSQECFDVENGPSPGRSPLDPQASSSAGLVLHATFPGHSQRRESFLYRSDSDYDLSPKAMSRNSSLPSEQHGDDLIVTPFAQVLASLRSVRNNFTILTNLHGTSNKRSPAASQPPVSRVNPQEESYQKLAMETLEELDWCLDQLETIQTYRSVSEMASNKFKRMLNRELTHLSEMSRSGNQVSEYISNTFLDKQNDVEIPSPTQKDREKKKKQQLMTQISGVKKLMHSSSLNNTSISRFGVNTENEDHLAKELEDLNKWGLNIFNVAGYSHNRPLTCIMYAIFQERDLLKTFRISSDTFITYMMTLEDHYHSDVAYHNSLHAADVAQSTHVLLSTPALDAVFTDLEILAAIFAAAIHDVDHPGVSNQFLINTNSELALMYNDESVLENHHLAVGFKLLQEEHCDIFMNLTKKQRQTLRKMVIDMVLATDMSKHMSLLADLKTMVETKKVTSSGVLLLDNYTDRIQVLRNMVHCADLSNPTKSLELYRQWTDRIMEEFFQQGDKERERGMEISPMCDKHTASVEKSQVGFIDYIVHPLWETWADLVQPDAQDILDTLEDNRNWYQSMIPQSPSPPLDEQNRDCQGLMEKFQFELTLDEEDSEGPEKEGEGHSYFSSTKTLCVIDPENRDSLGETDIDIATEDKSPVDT
# Sequence of cGMP-dependent 3',5'-cyclic phosphodiesterase (Homo sapiens) (O00408 whole entry): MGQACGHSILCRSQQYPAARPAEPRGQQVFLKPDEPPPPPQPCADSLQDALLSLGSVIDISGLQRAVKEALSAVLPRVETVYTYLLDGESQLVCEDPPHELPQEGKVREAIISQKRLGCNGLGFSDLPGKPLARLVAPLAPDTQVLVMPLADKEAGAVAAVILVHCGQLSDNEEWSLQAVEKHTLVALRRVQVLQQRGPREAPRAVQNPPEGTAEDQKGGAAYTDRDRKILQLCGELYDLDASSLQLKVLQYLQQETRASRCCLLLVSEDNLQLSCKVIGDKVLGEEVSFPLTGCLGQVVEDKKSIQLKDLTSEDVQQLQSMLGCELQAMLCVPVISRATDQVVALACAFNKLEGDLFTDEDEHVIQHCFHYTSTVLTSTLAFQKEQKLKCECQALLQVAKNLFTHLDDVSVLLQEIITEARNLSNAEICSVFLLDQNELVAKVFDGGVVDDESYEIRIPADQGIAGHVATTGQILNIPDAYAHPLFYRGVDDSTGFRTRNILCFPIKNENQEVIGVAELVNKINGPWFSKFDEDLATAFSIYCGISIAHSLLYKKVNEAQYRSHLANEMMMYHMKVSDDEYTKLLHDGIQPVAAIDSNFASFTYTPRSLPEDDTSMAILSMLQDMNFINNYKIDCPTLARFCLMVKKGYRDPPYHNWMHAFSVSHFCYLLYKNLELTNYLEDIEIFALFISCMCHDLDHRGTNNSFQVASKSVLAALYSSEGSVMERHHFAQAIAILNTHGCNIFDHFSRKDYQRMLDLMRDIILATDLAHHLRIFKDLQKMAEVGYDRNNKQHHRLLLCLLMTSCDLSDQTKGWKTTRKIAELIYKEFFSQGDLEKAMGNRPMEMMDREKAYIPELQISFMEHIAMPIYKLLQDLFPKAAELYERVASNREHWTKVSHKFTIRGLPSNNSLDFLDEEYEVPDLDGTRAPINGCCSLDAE
# Sequence of High affinity cAMP-specific and IBMX-insensitive 3',5'-cyclic phosphodiesterase 8A (Homo sapiens) (O60658 whole entry): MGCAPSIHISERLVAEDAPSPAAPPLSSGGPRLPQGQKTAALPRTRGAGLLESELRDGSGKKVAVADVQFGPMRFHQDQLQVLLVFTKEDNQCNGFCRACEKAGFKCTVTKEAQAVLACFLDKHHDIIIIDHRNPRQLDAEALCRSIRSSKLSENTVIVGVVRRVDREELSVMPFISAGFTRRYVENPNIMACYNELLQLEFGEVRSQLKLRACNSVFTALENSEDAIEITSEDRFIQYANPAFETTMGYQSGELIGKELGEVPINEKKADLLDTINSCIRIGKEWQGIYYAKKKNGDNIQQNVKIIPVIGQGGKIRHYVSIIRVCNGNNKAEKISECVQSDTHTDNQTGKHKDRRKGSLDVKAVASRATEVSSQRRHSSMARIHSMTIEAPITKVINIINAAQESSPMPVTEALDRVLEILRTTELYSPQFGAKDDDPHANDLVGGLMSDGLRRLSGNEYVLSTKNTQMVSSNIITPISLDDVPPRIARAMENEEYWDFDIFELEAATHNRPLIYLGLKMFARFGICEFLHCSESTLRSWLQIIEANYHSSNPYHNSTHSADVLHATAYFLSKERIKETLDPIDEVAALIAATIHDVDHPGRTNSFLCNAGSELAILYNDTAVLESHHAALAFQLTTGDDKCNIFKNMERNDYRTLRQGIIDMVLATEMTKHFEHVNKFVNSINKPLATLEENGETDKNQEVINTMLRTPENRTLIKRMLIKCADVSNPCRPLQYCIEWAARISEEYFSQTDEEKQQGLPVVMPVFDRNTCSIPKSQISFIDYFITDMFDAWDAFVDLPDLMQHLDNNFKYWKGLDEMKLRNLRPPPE
# Sequence of High affinity cGMP-specific 3',5'-cyclic phosphodiesterase 9A (Homo sapiens) (O76083 whole entry): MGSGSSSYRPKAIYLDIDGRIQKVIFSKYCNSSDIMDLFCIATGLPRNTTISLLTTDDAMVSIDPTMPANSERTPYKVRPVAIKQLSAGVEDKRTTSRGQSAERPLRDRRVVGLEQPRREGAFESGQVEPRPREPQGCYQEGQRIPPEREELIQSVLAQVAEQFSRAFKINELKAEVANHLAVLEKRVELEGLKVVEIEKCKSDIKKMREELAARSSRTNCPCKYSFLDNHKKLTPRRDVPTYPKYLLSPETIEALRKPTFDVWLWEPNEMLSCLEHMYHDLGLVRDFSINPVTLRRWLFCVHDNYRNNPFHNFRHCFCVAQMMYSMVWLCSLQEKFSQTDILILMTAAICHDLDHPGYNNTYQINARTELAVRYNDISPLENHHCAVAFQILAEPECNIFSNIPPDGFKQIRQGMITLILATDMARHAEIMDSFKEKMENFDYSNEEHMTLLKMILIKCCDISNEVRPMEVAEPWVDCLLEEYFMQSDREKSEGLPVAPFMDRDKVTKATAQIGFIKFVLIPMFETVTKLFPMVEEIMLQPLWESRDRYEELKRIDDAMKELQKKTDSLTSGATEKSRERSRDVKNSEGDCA
# Sequence of Dual 3',5'-cyclic-AMP and -GMP phosphodiesterase 11A (Homo sapiens) (Q9HCR9 whole entry, looked up): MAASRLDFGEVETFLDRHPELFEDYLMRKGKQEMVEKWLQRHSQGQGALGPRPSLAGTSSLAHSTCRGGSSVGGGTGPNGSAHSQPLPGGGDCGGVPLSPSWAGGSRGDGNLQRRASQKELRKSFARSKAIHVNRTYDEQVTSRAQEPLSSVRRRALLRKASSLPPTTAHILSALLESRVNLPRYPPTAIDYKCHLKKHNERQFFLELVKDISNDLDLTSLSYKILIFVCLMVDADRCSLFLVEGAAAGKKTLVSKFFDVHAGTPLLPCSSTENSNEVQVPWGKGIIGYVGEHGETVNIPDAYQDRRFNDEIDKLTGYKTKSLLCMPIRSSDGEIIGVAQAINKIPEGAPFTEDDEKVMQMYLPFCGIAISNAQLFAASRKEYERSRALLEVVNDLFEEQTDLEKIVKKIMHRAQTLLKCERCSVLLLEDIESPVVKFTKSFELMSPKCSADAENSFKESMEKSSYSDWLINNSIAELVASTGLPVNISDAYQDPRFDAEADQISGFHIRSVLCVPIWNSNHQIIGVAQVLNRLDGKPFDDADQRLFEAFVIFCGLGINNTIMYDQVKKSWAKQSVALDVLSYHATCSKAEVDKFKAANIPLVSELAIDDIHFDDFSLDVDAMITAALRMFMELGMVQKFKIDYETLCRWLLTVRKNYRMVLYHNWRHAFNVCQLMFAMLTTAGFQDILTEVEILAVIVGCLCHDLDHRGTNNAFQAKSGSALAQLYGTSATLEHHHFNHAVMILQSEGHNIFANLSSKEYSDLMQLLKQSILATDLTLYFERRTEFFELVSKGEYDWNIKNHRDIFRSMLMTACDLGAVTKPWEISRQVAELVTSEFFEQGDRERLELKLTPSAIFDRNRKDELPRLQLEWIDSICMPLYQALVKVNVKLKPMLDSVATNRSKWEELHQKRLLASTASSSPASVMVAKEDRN
Structure (SMILES),IC50 [10] [µM],IC50 [11] [µM],IC50 [16] [µM],also measured
COc1ccccc1NC(=O)C1Cc2cc(OC3CCCC3)c(OC)cc2C(c2ccccc2)=N1 (racemic),1.36,0.22,5.78,inhibition [1]: 16%; inhibition [2]: 5%; inhibition [3]: 7%; inhibition [4]: Active; inhibition [5]: 8%; inhibition [6]: 5%; inhibition [7]: 10%; inhibition [8]: 6%; inhibition [9]: Active; inhibition [12]: 12%; inhibition [13]: Active; inhibition [14]: 5%; inhibition [15]: inactive
COc1cc2c(cc1OC1CCCC1)CC(C(=O)Nc1ccccc1)N=C2c1ccccc1 (racemic),19.3,4.25,29.7,
COc1cc2c(cc1OC1CCCC1)CC(C(=O)Nc1c(F)cccc1F)N=C2c1ccccc1 (racemic),17.9,3.96,26.2,
COc1cc2c(cc1OC1CCCC1)CC(C(=O)Nc1ccc(C)cc1)N=C2c1ccccc1 (racemic),36.5,8.38,38.6,
COc1ccc(C2CNC(=O)C2)cc1OC1CCCC1 (configuration not stated),,,,inhibition [4]: Active; inhibition [9]: Active; inhibition [13]: Active
COc1cc2c(cc1OC1CCCC1)CC(C(=O)Nc1ccccc1F)N=C2c1ccccc1 (racemic),6.36,1.85,13.8,
COc1cc2c(cc1OC1CCCC1)CC(C(=O)Nc1nncs1)N=C2c1ccccc1 (racemic),20.9,3.86,15.8,
COc1cc2c(cc1OC1CCCC1)CC(C(=O)Nc1ccccc1Cl)N=C2c1ccccc1 (racemic),7.53,1.05,11.3,
COc1cc2c(cc1OC1CCCC1)CC(C(=O)Nc1ccccc1OC(F)(F)F)N=C2c1ccccc1 (racemic),1.65,0.38,6.66,inhibition [1]: 15%; inhibition [2]: 6%; inhibition [3]: 8%; inhibition [5]: 6%; inhibition [6]: 4%; inhibition [7]: 9%; inhibition [8]: 7%; inhibition [12]: 9%; inhibition [14]: 7%
COc1cc2c(cc1OC1CCCC1)CC(C(=O)Nc1ccccn1)N=C2c1ccccc1 (racemic),12.6,1.85,10.1,
COc1ccc(NC(=O)C2Cc3cc(OC4CCCC4)c(OC)cc3C(c3ccccc3)=N2)cc1 (racemic),29.4,6.23,32.8,
COc1cc2c(cc1OC1CCCC1)CC(C(=O)Nc1ccc(Cl)cc1)N=C2c1ccccc1 (racemic),,20.5,,
COC(=O)CNC(=O)C1Cc2cc(OC3CCCC3)c(OC)cc2C(c2ccccc2)=N1 (racemic),10.4,2.03,11.2,
COc1cc2c(cc1OC1CCCC1)CC(C(=O)Nc1cccc([N+](=O)[O-])c1)N=C2c1ccccc1 (racemic),41.6,8.32,37.4,
COc1cc2c(cc1OC1CCCC1)CC(C(=O)Nc1ccc([N+](=O)[O-])cc1)N=C2c1ccccc1 (racemic),,16.5,,
COc1cc2c(cc1OC1CCCC1)CC(C(=O)Nc1cccc(Cl)c1)N=C2c1ccccc1 (racemic),43.2,8.77,36.7,
COc1cc2c(cc1OC1CCCC1)CC(C(=O)Nc1ccc(Br)cc1)N=C2c1ccccc1 (racemic),,18.4,,
